Counter-ions that a name gives are not always drawn.
Each compound was assayed on TNF-α (assay: Induction of TNF-α using fresh human whole blood (WB)). Conditions: three donors, overnight incubation, cytokine as % of 2 μM resiquimod control, read-out: mean pEC50 for TNF-α (converted).
Format: cell-based
Procedure: Assay for the Induction of Interferon-α and TNF-α Using Fresh Human Whole Blood (WB) Compound Preparation
Compounds were prepared at 100× required concentration in DMSO in flat-bottom microtitre plates at a volume of 1.5 μL. Columns 1-10 contained a 1 in 4 serial dilution of the test compound. Included on each plate was a serial dilution of the TLR7/8 agonist resiquimod as a standard and Column 11 contained 1.5 μl of 200 μM resiquimod (giving a 2 μM final concentration, used to define the approximate maximal response to resiquimod). Each compound was assayed in duplicate for each donor.
Incubation and Assays for Interferon-α and TNF-α
Blood samples from three human donors were collected into sodium heparin (10 U/ml). 150 μl of whole Blood was dispensed into Col 1 to 11 of assay plates containing 1.5 μl of test compound or standard in DMSO. Plates were placed in an incubator overnight (37° C., 95% air, 5% CO2). Following the overnight incubation, plates were removed from the incubator & mixed on an orbital shaker for approximately 1 minute. 100 μl of 0.9% saline was added to each well and the plates mixed again on an orbital shaker. Plates were then centrifuged (2500 rpm, 10 mins), after which a sample of plasma was removed using a Biomek FX and assayed for both IFN-α and TNF-α using the MSD (Mesoscale Discovery) electrochemiluminescence assay platform. The IFN-α assay was carried out similarly to that described above. The TNF-α assay was carried out as per kit instructions (Cat No K111BHB).
Cytokine released was expressed as a percentage of the 2 μM resiquimod control (column 11). This percentage was plotted against compound concentration and the pEC50 for the response determined by non-linear least squares curve fitting. For the IFN-α responses, generally a 4 parameter logistic model was selected. For the TNF responses where a clear maximum response was obtained (i.e. a well defined plateau in the response was observed) then a 4 parameter model was generally used. If the upper asymptote of the curve wasn't well defined then the curve fitting was generally constrained to a maximal response of 100% (i.e. to the response to 2 μM resiquimod) or to the response of the highest concentration tested if this was greater than the resiquimod response. Some curves were bell shaped for one or both cytokines and the cytokine data on the down slope of the bell shaped response (i.e. concentrations above those giving the maximal response) were generally excluded from the fit, usually with the exception of the concentration immediately above the peak response. Curve fitting thus concentrated on the up slope of the dose response curve.

Row | Structure (SMILES) | EC50 [µM]
1 | CCCCc1nc(N)c2[nH]nc(CCCCCCN3CCCCC3)c2n1 [Example 1, 5-Butyl-3-(6-(piperidin-1-yl)hexyl)-1H-pyrazolo[4,3-d]pyrimidin-7-amine formate] | ≤ 3.98
2 | COCCc1nc(N)c2[nH]nc(CCCCCCN3CCCCC3)c2n1 [Example 2, 5-(2-Methoxyethyl)-3-(6-(piperidin-1-yl)hexyl)-1H-pyrazolo[4,3-d]pyrimidin-7-amine] | ≤ 3.98
3 | COCCc1nc(N)c2[nH]nc(CCCCCCN3CCCC3)c2n1 [Example 4, 5-(2-Methoxyethyl)-3-(6-(pyrrolidin-1-yl)hexyl)-1H-pyrazolo[4,3-d]pyrimidin-7-amine] | ≤ 3.98
4 | CCCCc1nc(N)c2[nH]nc(CCCCCN3CCCCC3)c2n1 [Example 5, 5-Butyl-3-(5-(piperidin-1-yl)pentyl)-1H-pyrazolo[4,3-d]pyrimidin-7-amine] | ≤ 3.98
5 | CCCCc1nc(N)c2[nH]nc(CCCCCN3CCCC3)c2n1 [Example 6, 5-Butyl-3-(5-(pyrrolidin-1-yl)pentyl)-1H-pyrazolo[4,3-d]pyrimidin-7-amine] | ≤ 3.98
6 | CCCCc1nc(N)c2[nH]nc(CCCCCCCN3CCCCC3)c2n1 [Example 7, 5-Butyl-3-(7-(piperidin-1-yl)heptyl)-1H-pyrazolo[4,3-d]pyrimidin-7-amine] | ≤ 3.98
7 | CCCCc1nc(N)c2[nH]nc(CCCCCCCN3CCCC3)c2n1 [Example 8, 5-Butyl-3-(7-(pyrrolidin-1-yl)heptyl)-1H-pyrazolo[4,3-d]pyrimidin-7-amine] | ≤ 3.98
8 | CCCCc1nc(N)c2[nH]nc(CCCCCCN3CCCCCC3)c2n1 [Example 9, 3-(6-(Azepan-1-yl)hexyl)-5-butyl-1H-pyrazolo[4,3-d]pyrimidin-7-amine] | ≤ 3.98
9 | CCCCc1nc(N)c2[nH]nc(CCCCCN3CCCCCC3)c2n1 [Example 10, 3-(5-(Azepan-1-yl)pentyl)-5-butyl-1H-pyrazolo[4,3-d]pyrimidin-7-amine] | ≤ 3.98
10 | CCCCc1nc(N)c2[nH]nc(CCCCCCN3CC[C@H](F)C3)c2n1 [Example 11, (S)-5-Butyl-3-(6-(3-fluoropyrrolidin-1-yl)hexyl)-1H-pyrazolo[4,3-d]pyrimidin-7-amine] | ≤ 3.98
11 | CCCCc1nc(N)c2[nH]nc(CCCCCCN3CCC(O)CC3)c2n1 [Example 15, 1-(6-(7-Amino-5-butyl-1H-pyrazolo[4,3-d]pyrimidin-3-yl)hexyl)piperidin-4-ol] | ≤ 3.98

The remaining lines, values ahead:

Row | EC50 [µM] | Structure (SMILES)
12 | ≤ 3.98 | CCCCc1nc(N)c2[nH]nc(CCCCCN3CC[C@H](F)C3)c2n1 [Example 12, (S)-5-Butyl-3-(5-(3-fluoropyrrolidin-1-yl)pentyl)-1H-pyrazolo[4,3-d]pyrimidin-7-amine]
13 | ≤ 3.98 | CCCCc1nc(N)c2[nH]nc(CCCCCCN3CC[C@@H](F)C3)c2n1 [Example 13, (R)-5-Butyl-3-(6-(3-fluoropyrrolidin-1-yl)hexyl)-1H-pyrazolo[4,3-d]pyrimidin-7-amine formate]
14 | ≤ 3.98 | CCCCc1nc(N)c2[nH]nc(CCCCCN3CC[C@@H](F)C3)c2n1 [Example 14, (R)-5-Butyl-3-(5-(3-fluoropyrrolidin-1-yl)pentyl)-1H-pyrazolo[4,3-d]pyrimidin-7-amine]
15 | ≤ 3.98 | CCCCc1nc(N)c2[nH]nc(CCCCCN3CCC(O)CC3)c2n1 [Example 16, 1-(5-(7-Amino-5-butyl-1H-pyrazolo[4,3-d]pyrimidin-3-yl)pentyl)piperidin-4-ol]
16 | ≤ 3.98 | CCCCc1nc(N)c2[nH]nc(CCCCCCN3CCC(F)CC3)c2n1 [Example 17, 5-Butyl-3-(6-(4-fluoropiperidin-1-yl)hexyl)-1H-pyrazolo[4,3-d]pyrimidin-7-amine formate]
17 | ≤ 3.98 | CCCCc1nc(N)c2[nH]nc(CCCCCN3CCC(F)CC3)c2n1 [Example 18, 5-Butyl-3-(5-(4-fluoropiperidin-1-yl)pentyl)-1H-pyrazolo[4,3-d]pyrimidin-7-amine]
